Test results as given in patent US7897616B2, “Imidazopyridin-2-one derivatives as inhibitors of lipases and phospholipases” (Sanofi-Aventis, priority 2006, dated 2011).

target: T1, endothelial lipase (EL) (Homo sapiens, UniProt Q9Y5X9); assay: EL inhibition assay (EL activity assay with fluorescent Bodipy phospholipid substrate); type: biochemical; conditions: EL from conditioned medium of recombinant cell lines (CHO, HEK293); 37° C., 90 minutes; Bodipy-labeled phosphocholine substrate
T1 construct: made in house; host or cells: recombinant CHO or HEK293 cell lines; concentrated conditioned medium used as enzyme solution
T1 sequence (Q9Y5X9 21-500): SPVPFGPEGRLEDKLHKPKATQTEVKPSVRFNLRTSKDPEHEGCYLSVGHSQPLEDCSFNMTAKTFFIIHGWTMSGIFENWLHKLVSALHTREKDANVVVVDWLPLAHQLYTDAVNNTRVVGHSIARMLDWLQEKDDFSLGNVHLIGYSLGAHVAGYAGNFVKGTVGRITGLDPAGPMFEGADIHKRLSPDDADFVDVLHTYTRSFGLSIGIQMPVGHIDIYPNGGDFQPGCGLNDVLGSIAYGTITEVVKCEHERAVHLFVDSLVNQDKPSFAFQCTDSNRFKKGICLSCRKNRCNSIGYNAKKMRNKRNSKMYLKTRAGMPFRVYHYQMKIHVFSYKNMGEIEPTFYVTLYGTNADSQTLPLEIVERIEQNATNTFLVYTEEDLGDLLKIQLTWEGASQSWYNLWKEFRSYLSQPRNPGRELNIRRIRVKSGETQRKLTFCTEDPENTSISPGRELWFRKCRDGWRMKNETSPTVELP
Method: The activity of the compounds of the invention of the formula I was tested in the following enzyme assay system: […]
EL is released as secretory protein in high concentration into cell culture medium (conditioned medium) by recombinant cell lines (CHO, HEK293). This is employed as an enzyme solution after concentration.
The phospholipase-specific substrate 1,2-bis(4,4-difluoro-5,7-dimethyl-4-bora-3a,4a-diaza-s-indacene-3-undecanoyl)-sn-glycero-3-phosphocholine (manufacturer Molecular Probes) is used to characterize the enzymatic activity of endothelial lipase and the effect of inhibitors. Hydrolysis of the A1 ester linkage of this phospholipid by the enzyme liberates a fatty acid labeled with the fluorescent dye Bodipy which can be detected after separation by thin-layer chromatography on an HPTLC plate (silica gel 60, Merck) or directly in the reaction vessel by measuring the fluorescence. The substrate solution is prepared by dissolving 100 μg of 1,2-bis(4,4-difluoro-5,7-dimethyl-4-bora-3a,4a-diaza-s-indacene-3-undecanoyl)-sn-glycero-3-phospho-choline (manufacturer Molecular Probes) in 100 μl of DMSO and taking up in 2.4 mg of tripalmitin (Sigma) in 393 μl of chloroform which comprises 20 mg/ml of DOP-choline (1,2-dioleoyl-sn-glycero-3-phosphocholine). 39.3 μl of this lipid mixture are transferred into a fresh reaction vessel, and the solvent is evaporated off. The lipid mixture is dissolved in 4 ml of 200 mM TRIS-HCl, 150 mM sodium chloride, pH=7.4, by sonicating twice. The subsequent enzymic reaction takes place at 37° C. for 90 minutes. For this purpose, 20 μl of the substrate solution are incubated with 2 μl of inhibitor of appropriate concentration (dissolved in 10% DMSO, using 10% strength DMSO solution for control) and 2 μl of enzyme solution (conditioned medium). Subsequently, 4 μl of the assay mixture are loaded onto an HPTLC plate (silica gel 60, Merck), and the liberated fluorescent dye is separated for detection with a mobile phase (diethyl ether:petroleum spirit:acetic acid [78:22:1]). After evaporation of the mobile phase, the plate is read in a fluorescence scanner. An increased liberation of the fluorescent dye in the uninhibited reaction is observed as a measure of the enzyme activity.
The enzymatic activity is reduced as a function of the inhibitor concentration used, and the inhibitor concentration at which a half-maximum enzymatic activity is observed is called IC50.

Row | SMILES | IC50 [µM]
1 | CCCCCCNC(=O)n1c(=O)n(C)c2cccnc21 [Example 1, N-Hexyl-1-methyl-2-oxo-1,2-dihydroimidazo[4,5-b]pyridine-3-carboxamide] | 0.06
2 | Cc1ccccc1CNC(=O)n1c(=O)n(C)c2cccnc21 [Example 2, N-(2-Methylbenzyl)-1-methyl-2-oxo-1,2-dihydroimidazo[4,5-b]pyridine-3-carboxamide] | 0.24
3 | CCCCCCNC(=O)n1c(=O)n(C(=O)OC(C)(C)C)c2c(C)ccnc21 [Example 7, tert-Butyl 3-hexylcarbamoyl-7-methyl-2-oxo-2,3-dihydroimidazo[4,5-b]pyridine-1-carboxylate] | 0.146
4 | CCCCCCNC(=O)n1c(=O)n(C(=O)NCCCCCC)c2cnccc21 [Example 8, N,N′-Bishexyl-2-oxoimidazo[4,5-c]pyridine-1,3-dicarboxamide] | 0.226
5 | Cn1c(=O)n(C(=O)N[C@@H]2CCc3ccccc32)c2ncccc21 [Example 9, 1-Methyl-2-oxo-1,2-dihydro-imidazo[4,5-b]pyridine-3-carboxylic acid-(R)-indan-1-ylamide] | 0.232
